Data reported in US7932270B2 (Cytokinetics, Inc., priority 2006, dated 2011).

Molecular target: T1, chicken gizzard smooth muscle myosin subfragment-1 chemically crosslinked to cardiac or skeletal actin (Gallus gallus, UniProt P10587)
T1 construct: chicken gizzard smooth muscle myosin subfragment-1; from tissue; host or cells: chicken gizzard
Assay: Smooth muscle myosin ATPase dose response assay (pyruvate kinase/horseradish peroxidase/pyruvate oxidase-coupled, amplex red fluorescence)
Assay type: biochemical
Settings: read-out: IC50 Arithmetic Mean
Description: In Vitro Model of Dose Dependent Smooth Muscle Myosin ATPase Modulation
Screening assays were performed using a pyruvate kinase and lactate dehydrogenase-coupled ATPase assay containing the following reagents: Potassium PIPES (50 mM), MgCl2 (3 mM), KCl (100 mM), ATP (0.15 mM), DTT (1 mM), BSA (0.1 mg/ml), NADH (0.5 mM), PEP (1.5 mM), pyruvate kinase (4 U/ml), lactate dehydrogenase (8 U/ml), and antifoam (50 ppm) (concentrations expressed are final assay concentrations). The pH was adjusted to 6.80 at 22° C. by addition of potassium hydroxide. Lead optimization assays were performed with a more sensitive pyruvate kinase/horseradish peroxidase/pyruvate oxidase-coupled ATPase assay containing the following reagents: Potassium PIPES (12 mM), MgCl2 (2 mM), KCl (100 mM), ATP (0.15 mM), BSA (0.05 mg/ml), potassium phosphate (2 mM), amplex red (0.1 mM), PEP (0.1 mM), pyruvate kinase (4 U/ml), horseradish peroxidase (0.5 U/ml), pyruvate oxidase (0.5 U/ml), and antifoam (50 ppm) (concentrations expressed are final assay concentrations). The pH was adjusted to 7.00 at 22° C. by addition of potassium hydroxide.
The protein components specific to this assay are chicken gizzard smooth muscle myosin subfragment-1 that has been chemically crosslinked to either cardiac or skeletal actin using an excess of 1-Ethyl-3-[3-dimethylaminopropyl]carbodiimide hydrochloride and N-hydroxysuccinimide. The exact concentration of the crosslinked smooth muscle myosin in the assay is determined empirically, by titration to achieve a desired rate of ATP hydrolysis. The concentration varies between protein preparations due to variations in the fraction of active molecules in each preparation.
Compound dose response assays are performed by first preparing a dilution series of test compound, each with an assay mixture containing potassium PIPES, MgCl2, KCl, ATP, BSA, potassium phosphate, amplex red, PEP, crosslinked smooth muscle actomyosin (subfragment-1), antifoam, and water. The assay is started by adding an equal volume of solution containing potassium Pipes, MgCl2, KCl, BSA, potassium phosphate, pyruvate kinase, horseradish peroxidase, pyruvate oxidase, antifoam, and water. ATP hydrolysis is monitored by measuring the fluorescence of amplex red (excitation at 480 nm, emission at 615 nm). The resulting dose response curve is fit by the 4 parameter equation y=Bottom+((Top-Bottom)/(1+((IC50/X)^Hill))). The IC50 is defined as the concentration at which ATPase activity is midway between the top and bottom of the dose response curve.

T1 sequence (P02607 2-151): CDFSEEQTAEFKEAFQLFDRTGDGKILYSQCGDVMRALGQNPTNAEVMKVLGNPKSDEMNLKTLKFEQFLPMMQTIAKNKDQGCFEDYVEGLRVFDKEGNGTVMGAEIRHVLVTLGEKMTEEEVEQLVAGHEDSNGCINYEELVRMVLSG
T1 sequence (P10587 84-789): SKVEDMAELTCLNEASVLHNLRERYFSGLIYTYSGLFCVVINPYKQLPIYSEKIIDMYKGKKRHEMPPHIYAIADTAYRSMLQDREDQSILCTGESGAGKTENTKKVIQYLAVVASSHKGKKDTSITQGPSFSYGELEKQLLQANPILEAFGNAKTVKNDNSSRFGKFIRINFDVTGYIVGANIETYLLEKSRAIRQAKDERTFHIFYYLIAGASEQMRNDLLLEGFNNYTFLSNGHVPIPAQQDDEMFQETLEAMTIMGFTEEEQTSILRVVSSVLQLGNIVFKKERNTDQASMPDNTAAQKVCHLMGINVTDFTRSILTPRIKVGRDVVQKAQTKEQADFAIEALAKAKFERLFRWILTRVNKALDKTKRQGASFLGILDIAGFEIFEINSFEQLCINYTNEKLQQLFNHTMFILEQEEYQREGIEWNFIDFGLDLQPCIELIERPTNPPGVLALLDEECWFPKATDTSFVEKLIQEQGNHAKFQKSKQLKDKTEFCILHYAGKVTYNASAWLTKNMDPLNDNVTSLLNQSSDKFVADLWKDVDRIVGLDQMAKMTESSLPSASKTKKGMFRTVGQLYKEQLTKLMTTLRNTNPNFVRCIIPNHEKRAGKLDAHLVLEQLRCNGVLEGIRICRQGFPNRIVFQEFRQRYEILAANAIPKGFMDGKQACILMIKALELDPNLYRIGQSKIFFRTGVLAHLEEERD

| Compound | IC50 [nM] |
| --- | --- |
| CNC(=O)CNC(=O)c1ccc(-c2ccccc2C#N)nc1NCCc1cccc(F)c1 [2-[(6-(2-cyanophenyl)-2-{[2-(3-fluorophenyl)ethyl]amino}(3-pyridyl))carbonylamino]-N-methylacetamide] | 102 |
| CC(C)(C)OC(=O)NCCC(=O)N1CCC[C@H](CNC(=O)c2ccc(-c3ccccc3C#N)nc2NCCc2cccc(F)c2)C1 [N-[((3R)-1-{3-[(tert-butoxy)carbonylamino]propanoyl}(3-piperidyl))methyl](6-(2-cyanophenyl)-2-{[2-(3-fluorophenyl)ethyl]amino}(3-pyridyl))carboxamide] | 3790 |
| Cn1cc(-c2nc(NCCc3cccc(F)c3)c(C(=O)NC[C@H]3CCC(=O)N3CCCNC(=O)OC(C)(C)C)cc2F)cn1 [N-[((2R)-1-{3-[(tert-butoxy)carbonylamino]propyl}-5-oxopyrrolidin-2-yl)methyl](5-fluoro-2-{[2-(3-fluorophenyl)ethyl]amino}-6-(1-methylpyrazol-4-yl)(3-pyridyl))carboxamide] | 322 |
| N#Cc1ccccc1-c1ccc(C(=O)N[C@H]2CCCN(CCN)C2=O)c(NCCc2cccc(F)c2)n1 (stereo in doubt) [N-[1-(2-aminoethyl)-2-oxo(3-piperidyl)](6-(2-cyanophenyl)-2-{[2-(3-fluorophenyl)ethyl]amino}(3-pyridyl))carboxamide] | 18500 |
| N#Cc1ccccc1-c1ccc(C(=O)NCC2CCNCC2)c(NCCc2cccc(F)c2)n1 [(6-(2-cyanophenyl)-2-{[2-(3-fluorophenyl)ethyl]amino}(3-pyridyl))-N-(4-piperidylmethyl)carboxamide] | 336 |
| CNC(=O)[C@H](C)CNC(=O)c1cc(F)c(-c2cnn(C)c2)nc1NCCc1cccc(F)c1 [(2R)-3-[(5-fluoro-2-{[2-(3-fluorophenyl)ethyl]amino}-6-(1-methylpyrazol-4-yl)(3-pyridyl))carbonylamino]-2-methyl-N-methylpropanamide] | 130 |
| C[C@@H](CO)CNC(=O)c1cc(F)c(-c2cn[nH]c2)nc1NCCc1cccc(F)c1 [N-((2R)-3-hydroxy-2-methylpropyl)(5-fluoro-2-{[2-(3-fluorophenyl)ethyl]amino}-6-pyrazol-4-yl(3-pyridyl))carboxamide] | 59 |
| C[C@H](CNC(=O)c1ccc(-c2ccccc2C#N)nc1NCCc1cccc(F)c1)N(C)C(=O)CCCNC(=O)OC(C)(C)C | 3680 |
| CC(C)(C)OC(=O)NCCN1CCCC1CNC(=O)c1ccc(-c2ccccc2C#N)nc1NCCc1cccc(F)c1 (centres unmarked) [N-[(1-{2-[(tert-butoxy)carbonylamino]ethyl}pyrrolidin-2-yl)methyl](6-(2-cyanophenyl)-2-{[2-(3-fluorophenyl)ethyl]amino}(3-pyridyl))carboxamide] | 4830 |
| N#Cc1ccccc1-c1ccc(C(=O)NCC2CCN(C(=O)CN)C2)c(NCCc2cccc(F)c2)n1 (centres unmarked) [N-{[1-(2-aminoacetyl)pyrrolidin-3-yl]methyl}(6-(2-cyanophenyl)-2-{[2-(3-fluorophenyl)ethyl]amino}(3-pyridyl))carboxamide] | 203 |
| CN(CCNC(=O)c1ccc(-c2ccccc2C#N)nc1NCCc1cccc(F)c1)C(=O)CN [2-amino-N-{2-[(6-(2-cyanophenyl)-2-{[2-(3-fluorophenyl)ethyl]amino}(3-pyridyl))carbonylamino]ethyl}-N-methylacetamide] | 1370 |
| CNC(=O)c1ccc(-c2ccccc2)nc1NCCc1ccccn1 [N-methyl{6-phenyl-2-[(2-(2-pyridyl)ethyl)amino](3-pyridyl)}carboxamide] | 27700 |
| N#Cc1ccccc1-c1ccc(C(=O)NC(CCCN)C(N)=O)c(NCCc2cccc(F)c2)n1 (centres unmarked) [N-(4-amino-1-carbamoylbutyl)(6-(2-cyanophenyl)-2-{[2-(3-fluorophenyl)ethyl]amino}(3-pyridyl))carboxamide] | 590 |
| CC(=O)NCC1CCCCN1C(=O)c1ccc(-c2ccccc2)nc1NCCc1ccccn1 (centres unmarked) [N-{[1-({6-phenyl-2-[(2-(2-pyridyl)ethyl)amino]-3-pyridyl}carbonyl)-2-piperidyl]methyl}acetamide] | 21200 |
| N#Cc1ccccc1-c1ccc(C(=O)NCc2cc[nH]n2)c(NCCc2cccc(F)c2)n1 [(6-(2-cyanophenyl)-2-{[2-(3-fluorophenyl)ethyl]amino}(3-pyridyl))-N-(pyrazol-3-ylmethyl)carboxamide] | 15 |
| Cc1ncccc1CNC(=O)c1ccc(-c2ccccc2C#N)nc1NCCc1cccc(F)c1 [(6-(2-cyanophenyl)-2-{[2-(3-fluorophenyl)ethyl]amino}(3-pyridyl))-N-[(2-methyl(3-pyridyl))methyl]carboxamide] | 22 |
| C[C@H](N)CNC(=O)c1ccc(-c2ccccc2C#N)nc1NCCc1cccc(F)c1 [N-((2S)-2-aminopropyl)(6-(2-cyanophenyl)-2-{[2-(3-fluorophenyl)ethyl]amino}(3-pyridyl))carboxamide] | 515 |
| CNC(=O)[C@@H](CO)NC(=O)c1ccc(-c2ccccc2C#N)nc1NCCc1cccc(F)c1 [(2R)-2-[(6-(2-cyanophenyl)-2-{[2-(3-fluorophenyl)ethyl]amino}(3-pyridyl))carbonylamino]-3-hydroxy-N-methylpropanamide] | 544 |
| O=C(NCc1cccnc1)c1ccc(-c2ccc(F)c(F)c2)nc1NCCc1cccc(F)c1 [(6-(3,4-difluorophenyl)-2-{[2-(3-fluorophenyl)ethyl]amino}(3-pyridyl))-N-(3-pyridylmethyl)carboxamide] | 534 |
| Cn1cc(-c2nc(NCCc3cccc(F)c3)c(C(=O)NC[C@H]3CCCN3C(=O)CCCNC(=O)OC(C)(C)C)cc2Cl)cn1 [N-[((2R)-1-{4-[(tert-butoxy)carbonylamino]butanoyl}pyrrolidin-2-yl)methyl](5-chloro-2-{[2-(3-fluorophenyl)ethyl]amino}-6-(1-methylpyrazol-4-yl)(3-pyridyl))carboxamide] | 683 |

The remaining lines, values ahead:

| IC50 [nM] | Compound |
| --- | --- |
| 38 | N#Cc1ccccc1-c1nc(NCCc2cccc(F)c2)c(C(=O)NC[C@H]2CCCN2C(=O)CCCN)cc1F [N-{[(2R)-1-(4-aminobutanoyl)pyrrolidin-2-yl]methyl}(6-(2-cyanophenyl)-5-fluoro-2-{[2-(3-fluorophenyl)ethyl]amino}(3-pyridyl))carboxamide] |
| 42 | N#Cc1ccccc1-c1nc(NCCc2cccc(F)c2)c(C(=O)NC[C@H]2CCCN2C(=O)CCN)cc1F [N-{[(2R)-1-(3-aminopropanoyl)pyrrolidin-2-yl]methyl}(6-(2-cyanophenyl)-5-fluoro-2-{[2-(3-fluorophenyl)ethyl]amino}(3-pyridyl))carboxamide] |
| 1290 | O=C(NCc1ccncc1)c1ccc(-c2ccccc2)nc1NCCc1ccccn1 [{6-phenyl-2-[(2-(2-pyridyl)ethyl)amino](3-pyridyl)}-N-(4-pyridylmethyl)carboxamide] |
| 4520 | N#Cc1ccccc1-c1ccc(C(=O)NC[C@@H]2CN(CCCN)CC(=O)N2)c(NCCc2cccc(F)c2)n1 [N-{[(2R)-4-(3-aminopropyl)-6-oxopiperazin-2-yl]methyl}(6-(2-cyanophenyl)-2-{[2-(3-fluorophenyl)ethyl]amino}(3-pyridyl))carboxamide] |
| 2190 | O=C(NCc1cccnc1)c1ccc(-c2ccccc2)nc1NCCc1cccnc1 [{6-phenyl-2-[(2-(3-pyridyl)ethyl)amino](3-pyridyl)}-N-(3-pyridylmethyl)carboxamide] |
| 141 | COC(=O)[C@@H](C)CNC(=O)c1cc(F)c(-c2cnn(C)c2)nc1NCCc1cccc(F)c1 [methyl (2S)-3-[(5-fluoro-2-{[2-(3-fluorophenyl)ethyl]amino}-6-(1-methylpyrazol-4-yl)(3-pyridyl))carbonylamino]-2-methylpropanoate] |
| 149 | O=C(NCc1cccnc1)c1ccc(-c2ccccc2)nc1NCCc1cccs1 [{6-phenyl-2-[(2-(2-thienyl)ethyl)amino](3-pyridyl)}-N-(3-pyridylmethyl)carboxamide] |
| 2320 | COC(=O)[C@H](CN)NC(=O)c1ccc(-c2ccccc2C#N)nc1NCCc1cccc(F)c1 [methyl (2S)-3-amino-2-[(6-(2-cyanophenyl)-2-{[2-(3-fluorophenyl)ethyl]amino}(3-pyridyl))carbonylamino]propanoate] |
| 8470 | N#Cc1ccccc1-c1ccc(C(=O)NC[C@@H]2CN(CCN)CC(=O)N2)c(NCCc2cccc(F)c2)n1 [N-{[(2R)-4-(2-aminoethyl)-6-oxopiperazin-2-yl]methyl}(6-(2-cyanophenyl)-2-{[2-(3-fluorophenyl)ethyl]amino}(3-pyridyl))carboxamide] |
